Assay results reported in patent US5968514A (priority 1994, dated 1999).
Where “and” joins values, the source holds several entries; their conditions need not be identical. Identical values can stand only once. Entries after “also recorded” stand apart in the source; their conditions may differ. Like-named read-outs stand apart in the source and are kept apart here. Ends that are not written are not given here.

How the values were obtained:
[1] = system: class II MHC molecules on A20 cells; assay type: binding, mouse; conditions: for IC50: read-out: concentration reducing 125I-MMTV ORF(76-119) binding to A20 cells by 50%
[2] = system: class II MHC molecules (I-A^d and I-E^d) on A20 cells; assay type: binding, mouse
[3] = system: class II-negative L cells; assay type: binding
[4] = target: I-Aβ^b (60-90) peptide of class II MHC β-chain (Mus musculus, UniProt P14483); assay type: binding, murine
Sequence of I-Aβ^b (60-90) peptide of class II MHC β-chain (P14483 87-117): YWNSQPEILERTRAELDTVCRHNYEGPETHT

[5] = system: class II MHC molecules on Raji cells; assay type: binding, human
[6] = system: class II MHC molecules on Raji cells; assay type: binding, human; remark: listed apart in the source
[7] = system: Whole PMNC; assay type: cell-based, human
[8] = system: human PMNC, APC and T cell fractions; assay type: cell-based
[9] = system: human peripheral mononuclear cells; assay type: cell-based

MMTV ORF(76-119): SEQ ID NO. 1 DSFNNSSVQDYNLNDSENSTFLLGQGPQPTSSYKPHRLCPSEIE
direct binding of 125I-labelled peptide to A20 cells [1]: did bind
IC50 [1]: 25 µM
reduction of 125I-SEA binding to A20 cells [2]: approximately 63%
IC50 ([2]; read-out: concentration reducing 125I-SEA binding to A20 cells by 50%): 20 µM and ~20 µM
binding of MMTV ORF(76-119) to class II-negative L cell line in comparison to A20 cells [3]: insignificant
competition with 125I-SEA and 125I-MMTV ORF(76-119) for binding to I-Aβ^b (60-90) peptide [4]: competed

staphylococcal enterotoxin A [SEA]
competition with 125I-MMTV ORF(76-119) for binding to A20 cells (in words) [1]: a more potent competitor
IC50 [1]: 1.8 µM
inhibition of 125I-HIV-1 Nef(123-160) binding to Raji cells (in words) [5]: binding as well as SEE, but it was more effective than SEC1 or SEB
effectiveness as competitor of 125I-SEA binding relative to MMTV ORF(76-119) [2]: 20 times
IC50 ([6]; read-out: concentration reducing 125I-SEA binding to Raji cells by 50%): 0.2 µM
IFNγ at 24 H [7]: 55 ± 7
IFNγ at 48 h [7]: 550 ± 141
IFNγ at 72 h [7]: 3000
IFNγ at 96 h [7]: 2000
SI ± sd, APC [8]: 1.6 ± 0.2
ratio of the stimulation index for whole PMNC versus reconstituted APC/T cells [8]: ~6.78
SI ± sd, stimulus alone [9]: 17.6 ± 3.3
competition with 125I-SEA and 125I-MMTV ORF(76-119) for binding to I-Aβ^b (60-90) peptide [4]: competed

Toxic shock syndrome toxin-1 [TSST-1]
competition with 125I-MMTV ORF(76-119) for binding to A20 cells (in words) [1]: did not compete

concanavalin A [ConA]
IFNγ at 24 H [7]: 10
IFNγ at 48 h [7]: 350 ± 71
IFNγ at 72 h [7]: 400 ± 141
IFNγ at 96 h [7]: 150 ± 71
level of IFNγ production (comparison in words) [7]: levels much lower than that of Nef or SEA
SI ± sd, APC [8]: 0.9 ± 0.1
SI ± sd, APC + T cells [8]: 40.7 ± 4.3
SI ± sd, stimulus alone [9]: 6.0 ± 0.4

HIV-1 Nef(123-160): SEQ ID NO. 18 DWQNYTPGPGVRYPLTFGWCYKLVPVEPDKVEEANKGE
IC50 ([5]; read-out: concentration reducing 125I-HIV-1 Nef(123-160) binding to Raji cells by 50%): 30 µM
SI ± sd, cells cultured with Anti-IgM + peptide ([9]; 96 h): 14.1 ± 0.5
SI ± sd, cells cultured with ConA + peptide ([9]; 96 h): 4.5 ± 0.4

NKGENTSLLHPVSLHGMDDPEREVLEWRFD [HIV-1 Nef(156-186)]
SI ± sd, cells cultured with ConA + peptide [9]: 5.2 ± 1.6

HIV-1 Nef(31-65): SEQ ID NO. 15 GAASRDLEKHGAITSSNTAATNAACAWLEAQEEEE
reduction of 125I-SEA binding to Raji cells [6]: slight inhibitory effects; also recorded: slightly reduced

HIV-1 Nef(1-38): SEQ ID NO. 14 MGGKWSKSSVVGWPTVRERMRRAEPAADGVGAASRDLE
reduction of 125I-SEA binding to Raji cells [6]: slight inhibitory effects; also recorded: slightly reduced

staphylococcal enterotoxin B [SEB]
competition with 125I-MMTV ORF(76-119) for binding to A20 cells (in words) [1]: competed less effectively than SEA
inhibition of 125I-HIV-1 Nef(123-160) binding to Raji cells (in words) [5]: it was more effective than SEC1 or SEB
